Results: PubChem BioAssay (NCI)
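These data come from cells grown in 96-well plates and exposed to compound for 48 hours at five concentrations. GI50 = concentration required for 50% inhibition of growth. TGI: total growth inhibition.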

Assays:
Test in all cases: DTP human tumour cell line panel, 48 h
BT-549 breast = test system: BT-549 breast
DU-145 prostate = test system: DU-145 prostate
EKVX NSCLC = test system: EKVX NSCLC
HOP-92 NSCLC = test system: HOP-92 NSCLC
KM12 colon = test system: KM12 colon
OVCAR-3 ovarian = test system: OVCAR-3 ovarian
OVCAR-4 ovarian = test system: OVCAR-4 ovarian
PC-3 prostate = test system: PC-3 prostate
SF-539 CNS = test system: SF-539 CNS
SK-MEL-5 melanoma = test system: SK-MEL-5 melanoma

SMILES: COC(=O)c1ccc2c(c1)c1c(C)c3cnccc3c(C)c1n2C
- GI50 (BT-549 breast): 0.247 µM
- TGI (BT-549 breast): 3.54 µM
- GI50 (DU-145 prostate): 0.0513 µM
- TGI (DU-145 prostate): 1.28 µM
- GI50 (EKVX NSCLC): 0.186 µM
- TGI (EKVX NSCLC): 0.623 µM
- GI50 (HOP-92 NSCLC): 0.0653 µM
- TGI (HOP-92 NSCLC): 0.584 µM
- GI50 (KM12 colon): 0.0495 µM
- TGI (KM12 colon): 1.89 µM
- GI50 (OVCAR-3 ovarian): 0.0652 µM
- TGI (OVCAR-3 ovarian): 1.15 µM
- GI50 (OVCAR-4 ovarian): 0.0839 µM
- TGI (OVCAR-4 ovarian): 0.531 µM
- GI50 (PC-3 prostate): 0.0579 µM
- TGI (PC-3 prostate): 4.06 µM
- GI50 (SF-539 CNS): 0.075 µM
- TGI (SF-539 CNS): 0.763 µM
- GI50 (SK-MEL-5 melanoma): 0.0866 µM
- TGI (SK-MEL-5 melanoma): 0.253 µM

SMILES: O=C1C=C(c2cc(Br)c(O)c(Br)c2)/C(=C/c2cc(Br)c(O)c(Br)c2)O1
- GI50 (BT-549 breast): 28.6 µM
- TGI (BT-549 breast): > 75 µM
- GI50 (DU-145 prostate): 31.7 µM
- TGI (DU-145 prostate): > 75 µM
- GI50 (EKVX NSCLC): 54.1 µM
- TGI (EKVX NSCLC): > 75 µM
- GI50 (HOP-92 NSCLC): 15.4 µM
- TGI (HOP-92 NSCLC): > 75 µM
- GI50 (KM12 colon): 37.6 µM
- TGI (KM12 colon): > 75 µM
- GI50 (OVCAR-3 ovarian): 21 µM
- TGI (OVCAR-3 ovarian): 71 µM
- GI50 (OVCAR-4 ovarian): 50.4 µM
- TGI (OVCAR-4 ovarian): > 75 µM
- GI50 (PC-3 prostate): 25 µM
- TGI (PC-3 prostate): > 75 µM
- GI50 (SF-539 CNS): 24 µM
- TGI (SF-539 CNS): > 75 µM
- GI50 (SK-MEL-5 melanoma): 29 µM
- TGI (SK-MEL-5 melanoma): > 75 µM

SMILES: c1ccc2c(NCCCCCCCCNc3c4ccccc4nc4ccccc34)c3ccccc3nc2c1
- TGI (BT-549 breast): 2.76 µM
- TGI (DU-145 prostate): 1.94 µM
- TGI (EKVX NSCLC): 2.8 µM
- TGI (HOP-92 NSCLC): 2.87 µM
- TGI (KM12 colon): 1.59 µM
- TGI (OVCAR-3 ovarian): 3.22 µM
- TGI (OVCAR-4 ovarian): 2.41 µM
- TGI (PC-3 prostate): 1.67 µM
- TGI (SF-539 CNS): 1.15 µM
- TGI (SK-MEL-5 melanoma): 2.71 µM

SMILES: COc1cccc2c(=O)c3c(sc12)c(NCCCN)nc1ccccc13
- GI50 (BT-549 breast): 10.8 µM
- TGI (BT-549 breast): 26.5 µM
- GI50 (DU-145 prostate): 1.48 µM
- TGI (DU-145 prostate): 2.82 µM
- GI50 (EKVX NSCLC): 1.43 µM
- TGI (EKVX NSCLC): 2.81 µM
- GI50 (HOP-92 NSCLC): 1.27 µM
- TGI (HOP-92 NSCLC): 2.75 µM
- GI50 (KM12 colon): 1.62 µM
- TGI (KM12 colon): 3.21 µM
- GI50 (OVCAR-3 ovarian): 1.41 µM
- TGI (OVCAR-3 ovarian): 2.91 µM
- GI50 (OVCAR-4 ovarian): 1.73 µM
- TGI (OVCAR-4 ovarian): 3.64 µM
- GI50 (PC-3 prostate): 1.58 µM
- TGI (PC-3 prostate): 3.14 µM
- GI50 (SF-539 CNS): 1.6 µM
- TGI (SF-539 CNS): 2.97 µM
- GI50 (SK-MEL-5 melanoma): 1.69 µM
- TGI (SK-MEL-5 melanoma): 3.07 µM

SMILES: ClCCn1cnc2c(SCc3ccccc3)ncnc21
- GI50 (BT-549 breast): 0.685 µM
- TGI (BT-549 breast): > 100 µM
- GI50 (DU-145 prostate): 3.82 µM
- TGI (DU-145 prostate): > 100 µM
- GI50 (EKVX NSCLC): 18.3 µM
- TGI (EKVX NSCLC): > 100 µM
- GI50 (HOP-92 NSCLC): 16.3 µM
- TGI (HOP-92 NSCLC): > 100 µM
- GI50 (KM12 colon): 1.04 µM
- TGI (KM12 colon): > 100 µM
- GI50 (OVCAR-3 ovarian): 7.45 µM
- TGI (OVCAR-3 ovarian): > 100 µM
- GI50 (OVCAR-4 ovarian): 19.8 µM
- TGI (OVCAR-4 ovarian): > 100 µM
- GI50 (PC-3 prostate): 0.356 µM
- TGI (PC-3 prostate): > 100 µM
- GI50 (SF-539 CNS): 8.77 µM
- TGI (SF-539 CNS): > 100 µM
- GI50 (SK-MEL-5 melanoma): 0.79 µM
- TGI (SK-MEL-5 melanoma): > 100 µM

SMILES: OC1CCC(Oc2cccc3cnc(Nc4ccc5nc[nH]c5c4)nc23)CC1 (stereo not given)
- GI50 (BT-549 breast): 0.22 µM
- TGI (BT-549 breast): 0.906 µM
- GI50 (DU-145 prostate): 0.246 µM
- TGI (DU-145 prostate): 17.2 µM
- GI50 (EKVX NSCLC): 0.487 µM
- TGI (EKVX NSCLC): 10.8 µM
- GI50 (HOP-92 NSCLC): 0.467 µM
- TGI (HOP-92 NSCLC): 29.4 µM
- GI50 (KM12 colon): 0.23 µM
- TGI (KM12 colon): 11.9 µM
- GI50 (OVCAR-3 ovarian): 0.423 µM
- TGI (OVCAR-3 ovarian): 19.4 µM
- GI50 (OVCAR-4 ovarian): 1.06 µM
- TGI (OVCAR-4 ovarian): 16 µM
- GI50 (PC-3 prostate): 0.254 µM
- TGI (PC-3 prostate): 20.7 µM
- GI50 (SF-539 CNS): 0.215 µM
- TGI (SF-539 CNS): 0.708 µM
- GI50 (SK-MEL-5 melanoma): 0.47 µM
- TGI (SK-MEL-5 melanoma): 6.51 µM

SMILES: N#C/C(=C(\O)C(=O)O)c1ccc(-c2cccc3ccccc23)cc1
- TGI (BT-549 breast): > 100 µM
- TGI (DU-145 prostate): > 100 µM
- TGI (EKVX NSCLC): > 100 µM
- TGI (HOP-92 NSCLC): > 100 µM
- TGI (KM12 colon): > 100 µM
- TGI (OVCAR-3 ovarian): > 100 µM
- TGI (OVCAR-4 ovarian): > 100 µM
- TGI (PC-3 prostate): > 100 µM
- TGI (SF-539 CNS): > 100 µM
- TGI (SK-MEL-5 melanoma): > 100 µM
